How the values were obtained:
Experiment in all cases: biochemical
Design in all cases: KINOMEscan active-site competition binding panel (468 kinase assays), per cent of control at 1000 nM
Conditions in all cases: KINOMEscan per cent of control (binding competition); read-out: Percent Control
[1] = target: SRMS (Homo sapiens, UniProt Q9H3Y6)
Description: (§1) Figure S7 / Percent Control

[2] = target: GSK3B (Homo sapiens, UniProt P49841)
Description: as §1

[3] = target: T1, ARK5 (Homo sapiens, UniProt O60285)
T1 construct: gene NUAK1
Description: as §1

[4] = target: TGFBR2 (Homo sapiens, UniProt P37173)
Description: as §1

[5] = target: PIM3 (Homo sapiens, UniProt Q86V86)
Description: as §1

[6] = target: KIT(A829P) (Homo sapiens, UniProt P10721, A829P)
Description: as §1

[7] = target: STK36 (Homo sapiens, UniProt Q9NRP7)
Description: as §1

[8] = target: ZAP70 (Homo sapiens, UniProt P43403)
Description: as §1

[9] = target: INSRR (Homo sapiens, UniProt P14616)
Description: as §1

[10] = target: FLT1 (Homo sapiens, UniProt P17948)
Description: as §1

[11] = target: EPHB3 (Homo sapiens, UniProt P54753)
Description: as §1

[12] = target: T2, MEK3 (Homo sapiens, UniProt P46734)
T2 construct: gene MAP2K3
Description: as §1

[13] = target: ROS1 (Homo sapiens, UniProt P08922)
Description: as §1

[14] = target: T3, IKK-beta (Homo sapiens, UniProt O14920)
T3 construct: gene IKBKB
Description: as §1

[15] = target: IRAK1 (Homo sapiens, UniProt P51617)
Description: as §1

[16] = target: CIT (Homo sapiens, UniProt O14578)
Description: as §1

[17] = target: CLK3 (Homo sapiens, UniProt P49761)
Description: as §1

[18] = target: IGF1R (Homo sapiens, UniProt P08069)
Description: as §1

[19] = target: T4, SNARK (Homo sapiens, UniProt Q9H093)
T4 construct: gene NUAK2
Description: as §1

[20] = target: LATS2 (Homo sapiens, UniProt Q9NRM7)
Description: as §1

[21] = target: T5, MLCK (Homo sapiens, UniProt Q32MK0)
T5 construct: gene MYLK3
Description: as §1

[22] = target: CAMK1 (Homo sapiens, UniProt Q14012)
Description: as §1

[23] = target: AURKA (Homo sapiens, UniProt O14965)
Description: as §1

[24] = target: EPHA7 (Homo sapiens, UniProt Q15375)
Description: as §1

[25] = target: AURKC (Homo sapiens, UniProt Q9UQB9)
Description: as §1

T2 sequence (P46734 whole entry): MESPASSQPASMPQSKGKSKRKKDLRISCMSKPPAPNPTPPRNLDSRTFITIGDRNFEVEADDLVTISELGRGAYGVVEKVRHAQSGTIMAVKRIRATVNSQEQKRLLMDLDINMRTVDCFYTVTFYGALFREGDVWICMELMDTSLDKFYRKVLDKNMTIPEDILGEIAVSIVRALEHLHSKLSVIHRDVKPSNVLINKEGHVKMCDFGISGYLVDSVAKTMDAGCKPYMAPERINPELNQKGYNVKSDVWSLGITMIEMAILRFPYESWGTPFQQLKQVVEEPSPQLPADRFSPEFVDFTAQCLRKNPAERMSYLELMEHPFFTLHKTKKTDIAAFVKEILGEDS
Chain of GSK3B (P49841 whole entry): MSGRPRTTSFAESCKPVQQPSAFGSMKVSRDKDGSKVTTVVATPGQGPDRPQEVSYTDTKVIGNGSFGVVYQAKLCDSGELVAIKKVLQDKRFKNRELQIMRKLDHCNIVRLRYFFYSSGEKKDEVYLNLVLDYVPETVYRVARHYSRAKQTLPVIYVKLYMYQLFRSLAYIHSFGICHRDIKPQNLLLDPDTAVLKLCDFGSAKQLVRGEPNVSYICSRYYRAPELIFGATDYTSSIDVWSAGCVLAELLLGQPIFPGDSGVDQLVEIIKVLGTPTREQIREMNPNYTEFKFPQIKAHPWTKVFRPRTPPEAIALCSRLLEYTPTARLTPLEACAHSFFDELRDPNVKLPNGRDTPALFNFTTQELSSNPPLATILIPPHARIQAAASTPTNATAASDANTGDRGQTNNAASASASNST
Chain of IGF1R (P08069 whole entry): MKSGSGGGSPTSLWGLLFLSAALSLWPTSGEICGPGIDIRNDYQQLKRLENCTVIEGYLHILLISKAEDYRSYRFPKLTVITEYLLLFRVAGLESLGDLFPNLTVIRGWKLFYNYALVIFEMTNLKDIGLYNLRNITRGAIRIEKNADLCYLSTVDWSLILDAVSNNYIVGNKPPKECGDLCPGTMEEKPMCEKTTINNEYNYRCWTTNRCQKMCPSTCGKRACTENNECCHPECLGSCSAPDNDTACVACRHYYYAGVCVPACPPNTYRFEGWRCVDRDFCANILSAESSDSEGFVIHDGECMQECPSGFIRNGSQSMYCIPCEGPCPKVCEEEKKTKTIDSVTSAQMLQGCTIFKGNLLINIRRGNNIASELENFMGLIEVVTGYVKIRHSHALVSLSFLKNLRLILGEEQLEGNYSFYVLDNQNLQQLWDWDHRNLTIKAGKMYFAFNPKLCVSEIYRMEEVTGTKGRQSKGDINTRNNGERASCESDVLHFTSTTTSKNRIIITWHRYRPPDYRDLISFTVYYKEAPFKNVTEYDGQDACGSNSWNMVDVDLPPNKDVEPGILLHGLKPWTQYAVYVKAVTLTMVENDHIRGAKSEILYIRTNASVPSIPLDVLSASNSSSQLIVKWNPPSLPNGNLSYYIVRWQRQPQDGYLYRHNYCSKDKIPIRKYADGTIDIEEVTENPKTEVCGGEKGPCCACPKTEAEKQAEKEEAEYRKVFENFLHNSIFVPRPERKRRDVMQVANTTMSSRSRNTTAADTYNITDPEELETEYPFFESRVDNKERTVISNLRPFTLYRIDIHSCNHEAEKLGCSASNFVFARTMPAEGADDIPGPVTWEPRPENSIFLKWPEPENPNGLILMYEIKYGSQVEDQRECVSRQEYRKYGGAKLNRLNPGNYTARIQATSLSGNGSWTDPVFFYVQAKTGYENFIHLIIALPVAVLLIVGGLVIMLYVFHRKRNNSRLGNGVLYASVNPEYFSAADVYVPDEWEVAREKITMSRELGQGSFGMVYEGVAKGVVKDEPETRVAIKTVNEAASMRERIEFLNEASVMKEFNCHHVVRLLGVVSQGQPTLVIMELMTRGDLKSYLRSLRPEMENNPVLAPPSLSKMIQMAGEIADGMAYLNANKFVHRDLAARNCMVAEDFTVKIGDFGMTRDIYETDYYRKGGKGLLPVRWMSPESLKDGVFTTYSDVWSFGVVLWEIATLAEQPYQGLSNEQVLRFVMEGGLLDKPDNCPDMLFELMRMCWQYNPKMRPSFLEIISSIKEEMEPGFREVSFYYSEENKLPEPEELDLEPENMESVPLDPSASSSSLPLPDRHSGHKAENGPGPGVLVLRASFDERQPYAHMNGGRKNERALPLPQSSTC
Chain of ZAP70 (P43403 whole entry): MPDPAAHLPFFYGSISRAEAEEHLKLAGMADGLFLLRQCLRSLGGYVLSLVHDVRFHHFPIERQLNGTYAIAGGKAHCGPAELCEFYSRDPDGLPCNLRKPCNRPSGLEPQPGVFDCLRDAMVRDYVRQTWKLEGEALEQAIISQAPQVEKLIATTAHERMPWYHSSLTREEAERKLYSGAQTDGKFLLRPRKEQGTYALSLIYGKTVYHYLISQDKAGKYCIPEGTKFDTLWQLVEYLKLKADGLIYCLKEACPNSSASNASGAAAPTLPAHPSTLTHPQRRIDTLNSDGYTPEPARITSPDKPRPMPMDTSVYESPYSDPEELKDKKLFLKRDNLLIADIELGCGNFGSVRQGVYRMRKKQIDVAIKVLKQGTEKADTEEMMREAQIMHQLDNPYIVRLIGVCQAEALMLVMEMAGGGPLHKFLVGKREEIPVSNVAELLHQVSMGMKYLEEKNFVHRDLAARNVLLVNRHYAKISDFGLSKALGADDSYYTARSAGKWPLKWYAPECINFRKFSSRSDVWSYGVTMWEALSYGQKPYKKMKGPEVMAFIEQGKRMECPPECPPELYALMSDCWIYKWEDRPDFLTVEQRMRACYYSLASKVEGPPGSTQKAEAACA
Chain of AURKA (O14965 whole entry): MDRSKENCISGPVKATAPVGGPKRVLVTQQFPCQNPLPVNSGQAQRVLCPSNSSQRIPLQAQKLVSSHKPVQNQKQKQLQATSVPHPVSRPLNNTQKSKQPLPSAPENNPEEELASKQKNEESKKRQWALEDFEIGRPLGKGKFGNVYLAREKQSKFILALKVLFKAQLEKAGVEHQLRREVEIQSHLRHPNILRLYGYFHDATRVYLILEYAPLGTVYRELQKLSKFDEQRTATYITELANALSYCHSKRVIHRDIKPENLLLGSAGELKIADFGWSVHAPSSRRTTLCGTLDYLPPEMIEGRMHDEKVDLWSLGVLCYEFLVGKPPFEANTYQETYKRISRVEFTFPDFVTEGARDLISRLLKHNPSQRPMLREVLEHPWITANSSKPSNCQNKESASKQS
Chain of CAMK1 (Q14012 whole entry): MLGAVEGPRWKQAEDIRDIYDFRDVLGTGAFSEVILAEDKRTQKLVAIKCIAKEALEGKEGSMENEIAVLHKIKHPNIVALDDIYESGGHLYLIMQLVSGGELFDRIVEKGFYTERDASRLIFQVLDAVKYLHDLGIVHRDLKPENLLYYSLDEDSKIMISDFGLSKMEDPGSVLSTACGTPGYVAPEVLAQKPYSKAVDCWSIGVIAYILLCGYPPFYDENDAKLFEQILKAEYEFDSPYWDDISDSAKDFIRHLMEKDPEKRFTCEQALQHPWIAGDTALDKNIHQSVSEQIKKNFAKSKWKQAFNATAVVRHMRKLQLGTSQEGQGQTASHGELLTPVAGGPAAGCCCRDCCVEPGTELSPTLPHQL
T5 sequence (Q32MK0 whole entry): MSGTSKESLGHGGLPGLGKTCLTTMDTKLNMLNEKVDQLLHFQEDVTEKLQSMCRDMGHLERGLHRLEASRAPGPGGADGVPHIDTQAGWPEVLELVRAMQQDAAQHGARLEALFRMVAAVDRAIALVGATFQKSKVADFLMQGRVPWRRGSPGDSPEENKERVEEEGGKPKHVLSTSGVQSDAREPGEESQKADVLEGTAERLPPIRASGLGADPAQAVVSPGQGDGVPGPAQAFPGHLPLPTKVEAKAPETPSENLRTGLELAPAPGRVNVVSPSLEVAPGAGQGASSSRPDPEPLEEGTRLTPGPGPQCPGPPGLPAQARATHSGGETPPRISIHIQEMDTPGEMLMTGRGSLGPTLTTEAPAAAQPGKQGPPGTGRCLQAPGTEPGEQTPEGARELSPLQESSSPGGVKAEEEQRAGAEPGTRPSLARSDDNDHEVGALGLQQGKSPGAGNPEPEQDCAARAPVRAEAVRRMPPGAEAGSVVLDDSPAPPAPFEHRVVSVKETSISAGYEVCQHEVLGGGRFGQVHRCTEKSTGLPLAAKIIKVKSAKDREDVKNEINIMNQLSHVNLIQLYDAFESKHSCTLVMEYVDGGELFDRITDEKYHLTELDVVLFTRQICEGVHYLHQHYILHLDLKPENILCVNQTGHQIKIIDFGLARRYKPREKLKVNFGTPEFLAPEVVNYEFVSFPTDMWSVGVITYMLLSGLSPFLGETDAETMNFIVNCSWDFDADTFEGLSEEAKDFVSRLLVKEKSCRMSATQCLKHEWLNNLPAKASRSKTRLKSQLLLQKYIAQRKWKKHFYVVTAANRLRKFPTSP
Chain of CLK3 (P49761 whole entry): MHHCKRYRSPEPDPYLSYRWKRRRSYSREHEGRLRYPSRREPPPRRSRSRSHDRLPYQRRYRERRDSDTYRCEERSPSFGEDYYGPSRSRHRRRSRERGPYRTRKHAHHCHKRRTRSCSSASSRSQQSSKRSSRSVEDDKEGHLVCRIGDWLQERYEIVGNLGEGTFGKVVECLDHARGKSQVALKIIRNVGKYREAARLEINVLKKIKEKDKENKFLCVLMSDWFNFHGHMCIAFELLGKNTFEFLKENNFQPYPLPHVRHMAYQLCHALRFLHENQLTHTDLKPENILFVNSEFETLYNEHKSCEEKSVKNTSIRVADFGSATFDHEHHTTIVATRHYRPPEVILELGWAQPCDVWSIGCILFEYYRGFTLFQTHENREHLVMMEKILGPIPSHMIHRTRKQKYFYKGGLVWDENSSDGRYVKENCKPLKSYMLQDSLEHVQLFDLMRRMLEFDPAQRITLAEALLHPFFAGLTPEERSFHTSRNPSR

SMILES: Cn1c(=O)[nH]c2ccc(-c3cccc(C(=O)NC4CCn5ccnc5C4)c3)cc21 (stereo not shown) [Z36-MP5]
- remaining binding at 1 µM [1]: 89%
- remaining binding at 1 µM [2]: 81%
- remaining binding at 1 µM [3]: 98%
- remaining binding at 1 µM [4]: 94%
- remaining binding at 1 µM [5]: 85%
- remaining binding at 1 µM [6]: 78%
- remaining binding at 1 µM [7]: 77%
- remaining binding at 1 µM [8]: 91%
- remaining binding at 1 µM [9]: 86%
- remaining binding at 1 µM [10]: 95%
- remaining binding at 1 µM [11]: 78%
- remaining binding at 1 µM [12]: 66%
- remaining binding at 1 µM [13]: 51%
- remaining binding at 1 µM [14]: 66%
- remaining binding at 1 µM [15]: 80%
- remaining binding at 1 µM [16]: 76%
- remaining binding at 1 µM [17]: 91%
- remaining binding at 1 µM [18]: 97%
- remaining binding at 1 µM [19]: 64%
- remaining binding at 1 µM [20]: 95%
- remaining binding at 1 µM [21]: 91%
- remaining binding at 1 µM [22]: 91%
- remaining binding at 1 µM [23]: 56%
- remaining binding at 1 µM [24]: 93%
- remaining binding at 1 µM [25]: 100%
